Measured values reported in US20260294836A1, “REMOTE CONTROL AND QUANTITATIVE MONITORING OF DRUG RELEASE FROM NANOPARTICLES BASED ON MAGNETIC PARTICLE IMAGING” (Board of Trustees of Michigan State University, priority 2022, published 2026).

Legend:
Format in all cases: in vivo, Balb/c mice
4T1 tumor [1] = experiment: Short-term tumor inhibition (BLI, tumor size, 15 days); settings: DOX alone
Procedure: (§1) The 4T1 tumor-bearing Balb/c mice may be randomly divided into six groups. In at least one example embodiment, each group may include three mice. In at least one example embodiment, a first group may receive PLGA. In at least one example embodiment, a second group may receive SPNCD. In at least one example embodiment, a third group may receive SPNCD and may be irradiated with NIR for 1 minute. In at least one example embodiment, a fourth group may receive SPNCD and may be irradiated with NIR for 7 minutes. In at least one example embodiment, a fifth group may receive SPNC and may be irradiated with NIR for 1 minute. In at least one example embodiment, a sixth group may receive DOX.
(§2) Once tumor volumes reach or become greater than 100 mm^3, the mice may be intratumorally injected with the various conditions (e.g., PLGA in the instance of the first group, SPNCD in the instance of the second group, SPNCD+NIR-1 minute in the instance of the third group, SPNCD+NIR-7 minute in the instances of the fourth group, SPNC+NIR-1 minute in the instance of the fifth group, and DOX in the instance of the sixth group) every 2 days for 15 days. Tumor size and mouse body weight may be measured every 2 days for 15 days in total. […]

F4/80-positive TAM = experiment: F4/80 immunostaining of tumor sections (TAM accumulation); settings: without NIR
Procedure: as §1, §2

4T1 tumor [2] = experiment: Long-term tumor inhibition and metastasis, 4T1 tumor mice; settings: DOX alone; PBS 30 days
Procedure: The 4T1 cells may be implanted into the mammary fat pads of six-week-old female Balb/c mice. In at least one example embodiment, about 1×10^6 cells may be implanted per mouse.
4T1 tumor-bearing Balb/c mice and BT549 tumor-bearing Nude mice ay be randomly divided into three groups. In at least one example embodiment, each group may include eight mice (PBS, SPNCD+NIR 7 min, DOX). Once tumor volumes reach or become greater than 100 mm^3, 4T1 tumor-bearing mice (DOX: 0.122 mg/kg) and BT549 tumor-bearing mice (DOX: 1.5 mg/kg) may be intratumorally injected with agents from the various conditions every 2 days for 15 days followed by NIR irradiation (808 nm, 1W). In at least one example embodiment, the DOX dose may be determined based on the IC50 of each cell line. Tumor size and mouse weight may be measured every 3 days for 80 days in total. Bioluminescence imaging (e.g., PerkinElmer, USA) may be conducted every 3 days by intraperitoneally injected D luciferin (e.g., 150 mg/kg) into 4T1 tumor-bearing Balb/c mice to observe the metastasis of 4T1 tumor-bearing Balb/c mice.
Tumor growth, mouse bodyweight, and tumor metastasis may be monitored for 80 days in 4T1 DOX-sensitive and BT459 DOX-resistant tumor mice. The mice may be randomly divided into four groups. In at least one example embodiment, each group may include five mice. […]

4T1 tumor [3] = experiment: Apoptosis in tumors (flow cytometry and TUNNEL assay); settings: no NIR
Procedure: as §1, §2

COc1cccc2c1C(=O)c1c(O)c3c(c(O)c1C2=O)C[C@@](O)(C(=O)CO)C[C@@H]3O[C@H]1C[C@H](N)[C@H](O)[C@H](C)O1 [DOX, doxorubicin]
tumor size (4T1 tumor [1]): did not increase in size
F4/80-positive TAM accumulation versus PLGA treated groups (F4/80-positive TAM): increased more
time-to-tumor metastasis (4T1 tumor [2]): 60 days post injection
apoptosis in tumor (4T1 tumor [3]): induced significant apoptosis
